The values that follow come from patent US8629273B2, “Diazinylpyrazolyl compounds” (Bayer Intellectual Property GmbH, priority 2009, dated 2014).

Structures are written as SMILES.

One series concerns adult Musca domestica. As to the kind of experiment: Musca domestica test (MUSCDO). In kind it is in vivo. The settings on record: treated sponge. The essentials: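 Compound taken up in DMSO and diluted with water to test concentration, applied to a sponge in vessels then stocked with adult houseflies. Kill % scored after the set period; 100% = all flies dead, 0% = none.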
A short description of series [1]: logP by HPLC on reversed-phase columns (C 18), EU Guideline 79/831 Annex V.A8. In kind it is physicochemical.
The test system of a further series is Lucilia cuprina larvae. As to the kind of experiment: Lucilia cuprina test (LUCICU). The format is in vivo. The settings on record: 100 ppm, treated horse meat, after 2 days. The essentials: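 Horse meat treated with compound diluted in water from DMSO concentrate, then populated with larvae. Mortality scored after 2 days as percent kill, 100% meaning all larvae dead.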

Series [2] relates to caterpillars of the army worm (Spodoptera frugiperda). The series is described as follows: Spodoptera frugiperda test (SPODFR spray treatment). In kind it is in vivo. The settings on record: after 7 days. The method, boiled down: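 Maize leaf discs sprayed with compound in acetone/DMF with alkylaryl polyglycol ether emulsifier, diluted in emulsifier-containing water to the test concentration. Once dry, discs were infested with army worm caterpillars. Mortality scored after 7 days as % activity (100% = all caterpillars killed).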

Series [3] deals with larvae of the mustard beetle (Phaedon cochleariae). As to the kind of experiment: Phaedon test (PHAECO spray treatment). The format is in vivo. The settings on record: 100 g/ha, after 7 days. The method, boiled down: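 Chinese cabbage leaf discs were sprayed with compound formulated in acetone/dimethyl formamide plus alkylaryl polyglycol ether emulsifier, diluted in emulsifier-containing water to the desired concentration. After drying, discs were infested with mustard beetle larvae. Mortality (%) was scored after 7 days, where 100% means all larvae killed.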

For a further series, the system named is Boophilus microplus. As to the kind of experiment: Boophilus microplus test (BOOPMI injection). The format is in vivo. The settings on record: 20 μg/animal, injected into the abdomen, after 7 days. The method, boiled down: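 Compound dissolved in DMSO, diluted with water and injected into the tick abdomen; ticks kept in a climatized room. Fertile egg deposition assessed after 7 days; 100% means no tick laid fertile eggs.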

Series [4] concerns green peach affid (Myzus persicae). As to the kind of experiment: Myzus test (MYZUPE spray treatment). In kind it is in vivo. The settings on record: 100 g/ha, after 6 days. As for the experimental part: Solvents: 78 parts by weight of acetone
• 1.5 parts by weight of dimethyl formamide Emulsifier: 0.5 part by weight of alkylaryl polyglycol ether
To produce a suitable preparation of active compound, 1 part by weight of active compound is mixed with the stated amounts of solvent and emulsifier, and the concentrate is diluted with emulsifier-containing water to the desired concentration.
Discs of Chinese cabbage leaves (Brassica pekinensis) infested by all stages of the green peach affid (Myzus persicae) are sprayed with an active compound preparation of the desired concentration.
After 6 days, the activity in % is determined. 100% means that all affids have been killed; 0% means that none of the affids have been killed.

Series [5] deals with greenhouse red spider mite (Tetranychus urticae). The series is described as follows: Tetranychus test, OP resistant (TETRUR spray treatment). The format is in vivo. The settings on record: after 6 days. As for the experimental part: Solvents: 78.0 parts by weight of acetone • • 1.5 parts by weight of dimethyl formamide Emulsifier: 0.5 part by weight of alkylaryl polyglycol ether To produce a suitable preparation of active compound, 1 part by weight of active compound is mixed with the stated amounts of solvent and emulsifier, and the concentrate is diluted with emulsifier-containing water to the desired concentration. Discs of bean leaves (Phaseolus vulgaris) which are infested by all stages of the greenhouse red spider mite (Tetranychus urticae) are sprayed with an active compound preparation of the desired concentration. After 6 days, the activity in % is determined. 100% means that all spider mites have been killed; 0% means that none of the spider mites has been killed. The test was carried out and evaluated as described in Example B.7.

A further series deals with Ctenocephalides felis. As to the kind of experiment: Ctenocephalides felis oral (CTECFE). The format is in vivo. The settings on record: 100 ppm in citrated cattle blood, after 2 days. The method, boiled down:
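Twenty unfed adult fleas fed through parafilm on citrated cattle blood containing compound, diluted from a DMSO concentrate (10 mg per 0.5 ml). Kill % scored after 2 days (100% = all dead, 0% = none).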

For series [6], the system named is Boophilus microplus strain Parkhurst (SP-resistant). The series is described as follows: Boophilus microplus test (DIP). The format is in vivo. The settings on record: 100 ppm. The procedure: Test animals: adult fed females of the Boophilus microplus strain Parkhurst (SP-resistant)
Solvent: Dimethyl sulphoxide
10 mg of active compound are dissolved in 0.5 ml of dimethyl sulphoxide. To produce a suitable formulation, the active compound solution is diluted with water to the particular desired concentration. This active compound preparation is pipetted into tubes. 8-10 ticks are transferred into a further tube provided with holes. The tube is dipped into the active compound preparation, with all ticks being wetted completely. After the liquid has run off, the ticks are transferred to filter discs in plastic dishes and kept in a climatized room. After the desired period of time, the activity is checked for deposition of fertile eggs. Eggs whose fertility is not visible from the outside are kept in glass tubes in a climatized cupboard under the larvae have hatched. An activity of 100% means that no tick has laid fertile eggs.

Where [7] appears, read: ** LC-MS in the neutral range, pH 7.8, 0.001 molar aqueous ammonium bicarbonate and acetonitrile.

Turning to `CCOC=Nc1c(-c2cc(Cl)cc(C(F)(F)F)c2)c(C(F)(F)F)nn1-c1ncccn1` [Example 1-11], the results for the kill in the series with adult Musca domestica (100 ppm) and in the series on Lucilia cuprina larvae were 80% and 100%, respectively. Also, the logP was 4.61* in [1] (* LC-MS in the acidic range, pH 2.7, 0.1% aqueous formic acid and acetonitrile); 4.58**; in series [1] (setting [7]). Further, in series [2] (100 g/ha), the “activity (caterpillars killed)” value is listed as 100%. The “activity (beetle larvae killed)” value in [3] is 100%. Further, the “activity (no deposition of fertile eggs)” value in the series with Boophilus microplus was 100%. In [4], the “activity (affids killed)” value is 90%.

With `CCCCOC=Nc1c(-c2cc(Cl)cc(C(F)(F)F)c2)c(C(F)(F)F)nn1-c1ncccn1` [Example 1-15], the kill with adult Musca domestica (100 ppm) is reported as 80%; in the series with Lucilia cuprina larvae, 100%; in the series with Ctenocephalides felis, 100%. Also, the logP in series [1] (setting [7]) is 5.24**. Further, the “activity (caterpillars killed)” value in [2] (100 g/ha) amounted to 100%. The “activity (beetle larvae killed)” value in series [3] is 100%. Also, the “activity (spider mites killed)” value in [5] (100 g/ha) was 100%. Moreover, the “activity (no deposition of fertile eggs)” value in the series on Boophilus microplus turned out to be 100%. In [4], the “activity (affids killed)” value amounted to 80%.

Regarding `FC(F)(F)c1nn(-c2ncccn2)c(N=Cc2ccccc2)c1-c1cc(Cl)c2c(c1)OCO2` [Example 1-18], the figures for the kill in the series on adult Musca domestica (20 ppm), with Lucilia cuprina larvae and with Ctenocephalides felis were 80%, 100% and 100%, respectively. The “activity (no deposition of fertile eggs)” value (in series [6]; in the series with Boophilus microplus) was 100% each time. Moreover, in [1] (setting [7]), the logP is given as 3.97**. The “activity (caterpillars killed)” value in series [2] (20 g/ha) was determined as 67%; in [2] (100 g/ha) it was 100%. The “activity (beetle larvae killed)” value in series [3] was found to be 100%. The “activity (spider mites killed)” value is on record as “at least 90%” in [5] (20 g/ha) and 90% in series [5] (100 g/ha).

With `FC(F)C(F)(F)c1nn(-c2ncccn2)c(N=Cc2ccc(Cl)cc2)c1-c1cc(Cl)c2c(c1)OCO2` [Example 1-22], the “activity (no deposition of fertile eggs)” value (in series [6]; with Boophilus microplus) was 100% each time. Further, in [1] (setting [7]), the logP was 4.34**. The kill in the series on Lucilia cuprina larvae and with Ctenocephalides felis was 100% throughout. Besides, the “activity (caterpillars killed)” value in series [2] (100 g/ha) was 100%. For the same compound, the “activity (beetle larvae killed)” value in series [3] is on record as 100%. Besides, the “activity (spider mites killed)” value in series [5] (100 g/ha) is reported as 90%.

As to `CCOC=Nc1c(-c2cc(Cl)cc(C(F)(F)F)c2)c(C(F)(F)C(F)F)nn1-c1ncccn1` [Example 1-34], the kill in the series with adult Musca domestica (100 ppm) was 100%; in the series with Lucilia cuprina larvae it was 100%; with Ctenocephalides felis, 80%. Moreover, in [1] (setting [7]), the logP is 4.43**. Besides, the “activity (caterpillars killed)” value in series [2] (100 g/ha) is 100%. The “activity (beetle larvae killed)” value in [3] amounted to 100%. In series [5] (100 g/ha), the “activity (spider mites killed)” value amounted to 100%. Besides, in the series on Boophilus microplus, the “activity (no deposition of fertile eggs)” value was 100%. Further, in [4], the “activity (affids killed)” value stood at 90%.

Consider `CCOC=Nc1c(-c2cc(Cl)c3c(c2)OCO3)c(C(F)(F)C(F)F)nn1-c1ncccn1` [Example 1-35], for which the kill in the series with adult Musca domestica (20 ppm), in the series with Lucilia cuprina larvae and with Ctenocephalides felis was 100% throughout. Besides, the “activity (no deposition of fertile eggs)” value (in series [6]; in the series with Boophilus microplus) was 100% in each case. In addition, the logP in series [1] (setting [7]) is given as 3.42**. Also, the “activity (caterpillars killed)” value in series [2] (100 g/ha) is given as 100%. The “activity (beetle larvae killed)” value in [3] is 100%. In addition, the “activity (spider mites killed)” value in series [5] (100 g/ha) came to 90%.

On to `CC(C)OC=Nc1c(-c2cc(Cl)c3c(c2)OCO3)c(C(F)(F)C(F)F)nn1-c1ncccn1` [Example 1-38], for which the kill in the series on adult Musca domestica (20 ppm), in the series with Lucilia cuprina larvae and in the series on Ctenocephalides felis was 100% throughout. Also, the “activity (no deposition of fertile eggs)” value (in series [6]; with Boophilus microplus) was 100% throughout. In addition, in [1] (setting [7]), the logP was 3.66**. For the same compound, the “activity (caterpillars killed)” value in series [2] (100 g/ha) is recorded as 100%. Also, the “activity (beetle larvae killed)” value in series [3] turned out to be 100%. Also, in series [5] (100 g/ha), the “activity (spider mites killed)” value is on record as 100%.

Take `CCOC=Nc1c(-c2cc(Cl)cc(C(F)(F)F)c2)c(C(F)(F)C(F)(F)F)nn1-c1ncccn1` [Example 1-43]: in series [1] (setting [7]), the logP is on record as 5.02**. Also, the “activity (caterpillars killed)” value in [2] (100 g/ha) turned out to be 100%. Further, in series [3], the “activity (beetle larvae killed)” value came out at 100%. Further, in [5] (100 g/ha), the “activity (spider mites killed)” value is on record as 100%. In addition, the “activity (affids killed)” value in series [4] stood at 100%.

`CCOC=Nc1c(-c2cc(Cl)c3c(c2)OCO3)c(C(F)(F)F)nn1-c1nccnc1OC` [Example 2-18]: the “activity (no deposition of fertile eggs)” value (in series [6]; in the series with Boophilus microplus) was 100% throughout. Further, in series [1] (setting [7]), the logP is 4.03**. In addition, the kill in the series with Lucilia cuprina larvae and with Ctenocephalides felis was 100% throughout. Besides, the “activity (caterpillars killed)” value in series [2] (100 g/ha) is given as 100%. The “activity (beetle larvae killed)” value in series [3] amounted to 100%. Besides, the “activity (spider mites killed)” value in series [5] (100 g/ha) is on record as 100%. Besides, the “activity (affids killed)” value in series [4] was 100%.

For the compound `COc1nccnc1-n1nc(C(F)(F)F)c(-c2cc(Cl)c3c(c2)OCO3)c1N=COC(C)C` [Example 2-19], the kill with adult Musca domestica (20 ppm) was found to be 100%; in the series with Lucilia cuprina larvae, 100%; in the series on Ctenocephalides felis, 90%. Further, the “activity (no deposition of fertile eggs)” value worked out at 80% in [6] and 100% in the series with Boophilus microplus. In series [1] (setting [7]), the logP is 4.26**. In series [2] (100 g/ha), the “activity (caterpillars killed)” value came out at 100%. Further, the “activity (beetle larvae killed)” value in series [3] was determined as 100%. Besides, the “activity (spider mites killed)” value in series [5] (100 g/ha) is reported as 100%.
